Measurements reported in patent US9635879B2, “Sweetener” (Tate & Lyle Ingredients Americas LLC, priority 2013, dated 2017).
Marks after values point to notes of the source that are not given here.

Experiments:
[1] = Round table sensory evaluation with test panelists: sucrose equivalent value (SEV) against sucrose reference samples; format: in vivo; conditions: for Sweetness (mean SEV), two-way ANOVA, grouping (Duncan): second Sweetness line, superscripts = Duncan grouping, level of significance 5%
Procedure: Round table evaluations were performed with test panelists. Equal sweet 10 SEV concentrations in neutral pH water were made for allulose, fructose and sucralose, as well as a composition comprising allulose, fructose and sucralose. The components of the test compositions are described in the below tables. The mixed compositions were calculated using the Beidler mixture equation for the sweeteners. The Beidler mixture equation for sweeteners is as follows: […]
The concentration of each component in the mixture in ppm is divided by SEV (c/R) and is plotted against concentration, c. The slope of the linear regression is the maximum SEV (Rmax). The y-intercept of the linear regression multiplied by Rmax is the half-maximal sweetness concentration, 1/K. Rmax and 1/K are the two parameters used in the Beidler equation.
The equal-molar mixture was tested against reference samples for the panelists to determine SEV values. […] The test samples were served in 2 ounce (approximately 60 ml) soufflé cups coded with 3-digit codes at room temperature. A two minute wait period between samples was enforced. Water and unsalted crackers was available for the panelists to clear their palates before and during testing. EyeQuestion was used for ballot development and recording of results. Results were collected in EyeQuestion for calculating approximate SEV level of each test sample. The test products analyzed in this experiment are described below in Table 1.

[2] = times as sweet as sucrose; cited from earlier work
[3] = neutral pH water, room temperature, samples made to equal sweet 10 SEV, references 4-14% sucrose

| Structure (SMILES) | Mean sucrose equivalent value (SEV) (Mean 1) [1, 3] | Sweetness (mean SEV), two-way ANOVA, grouping (Duncan) [1] | Sweetness relative to sucrose [2] | Sweetness (mean SEV), two-way ANOVA, level of significance (Duncan) ([1]; first Sweetness line, superscripts = level of significance (Duncan)) | Median sucrose equivalent value (SEV) (Median 1) [1, 3] |
| --- | --- | --- | --- | --- | --- |
| O=C(CO)C(O)C(O)C(O)CO (stereo not drawn) [Allulose, allulose] | 10.14 | 10.14^b-c |  |  |  |
| O=C(CO)[C@@H](O)[C@H](O)[C@H](O)CO [Fructose, fructose] | 10.14 | 10.14^b-c |  |  |  |
| OC[C@H]1O[C@H](O[C@]2(CCl)O[C@H](CCl)[C@@H](O)[C@@H]2O)[C@H](O)[C@@H](O)[C@H]1Cl [Sucralose, sucralose] | 9.286 | 9.29^c | approximately 600 times | 9.29 | 10 |
